# Experiments:
# K. pneumoniae WGLW2 = assay: MIC assay; format: cell-based, Klebsiella pneumoniae; conditions: Klebsiella pneumoniae; K. pneumoniae WGLW2; read-out: Minimum inhibitory concentration
# Text: (§1) Bacterial strains, growth conditions, and persister isolation. Methicillin-resistant S. aureus strains, MW2 BAA-1707, ATCC 33591, and JE2, methicillin-susceptible S. aureus strains, NCTC 8325, Newman, and ATCC 29213, vancomycin-resistant S. aureus strain, VRS1, Enterococcus faecium E007, vancomycin-resistant E. faecium strains, C68,^7 WB312, and WC196, Klebsiella pneumoniae WGLW2 (BEI Resources, Manassas, Va., USA), Acinetobacter baumannii ATCC 17978, Pseudomonas aeruginosa PA14, and Enterobacter aerogenes ATCC 13048 were used to test antimicrobial activity (Table 1). S. aureus strains were grown in tryptic soy broth (TSB) (BD, Franklin Lakes, N.J., USA), and E. faecium was grown in brain-heart infusion (BHI) broth (BD, Franklin Lakes, N.J., USA) at 37° C. K. pneumoniae, A. baumannii, P. aeruginosa, and E. aerogenes were grown in Luria Bertani (LB) broth (BD, Franklin Lakes, N.J., USA) at 37° C.
# (§2) Minimal inhibitory concentration (MIC) assay. The MICS of antibiotics were determined by the standard micro-dilution method recommended by the Clinical and Laboratory Standards Institute. MIC assays were conducted in biological triplicate.
# [1] = system: MRSA MW2 persisters (stationary phase); assay: Persister killing assay; format: cell-based, S. aureus
# Experimental: Persister killing assay. […] Persister cells of MRSA MW2 were prepared by growing cultures overnight to stationary phase at 37° C. at 200 rpm and washing 3 times with PBS. 1 mL of ˜2×10^8 CFU/mL MRSA persisters was added to 1 mL of PBS containing 2-fold of the desired concentration of antibiotics in a 96-well assay block (Corning Costar 3960). The assay block was incubated at 37° C., with shaking at 200 rpm. At specific times, […] were removed, washed once with PBS, serially diluted and spot-plated on TSA plates. Colonies were counted to enumerate the number of live cells after overnight incubation at 37° C. These experiments were conducted in biological triplicate.
# human erythrocytes = assay: Human blood hemolysis; format: cell-based
# Experimental: Human blood hemolysis. Hemolytic activity was evaluated as described in a previous study. Briefly, 100 μL of 4% human erythrocytes (Rockland Immunochemicals, Limerick, Pa., USA) was added to 100 μL of 2-fold serial dilutions of compounds in PBS, 0.2% DMSO (negative control), or 2% Triton-X 100 (positive control) in a 96-well plate. The 96-well plate was incubated at 37° C. for 1 h and then centrifuged at 500× g for 5 min. 50 μL of the supernatant was transferred to a fresh 96-well plate, and absorbance of supernatants was measured at 540 nm. Percent hemolysis was calculated using the following equation: (A540 nm of compound treated sample−A540 nm of 0.1% DMSO treated sample)/(A540 nm of 1% Triton X-100 treated sample−A540 nm of 0.1% DMSO treated sample)×100. HC50 (concentration of a compound causing 50% hemolysis) was determined using SigmaPlot 10.0 (Systat Software Inc., San Jose, Calif., USA).
# [2] = system: S. aureus and Enterococcus faecium clinical strains; assay: MIC against a panel of clinical strains; format: cell-based; conditions: panel incl. multidrug-resistant MW2 and VRS1; read-out: minimal inhibitory concentration (MIC)
# Text: as §1, §2
structure (smiles),measurement,setting,value
O=C(O)c1c(Sc2ccccc2)c2cc(Cl)ccc2n1Cc1ccc(Cl)cc1 [nTZDpa],MIC,K. pneumoniae WGLW2,> 64 µg/mL
same,persister killing,[1]; 8 μg/ml nTZDpa and 80 μg/ml gentamicin,3 logs
same,time to eradicate 100% of persisters,[1]; 16 μg/ml nTZDpa and 10 μg/ml gentamicin,≤ 3 h
same,killing of MRSA persisters in combination,[1]; 16 μg/ml nTZDpa combined with 10× MIC of other aminoglycosides,synergistic killing of MRSA persisters
same,reduction of MRSA persisters,[1]; 32 μg/mL,~2 log
same,time to complete eradication of persisters,"[1]; 64 μg/mL, ~5×10^7 CFU/mL",≤ 2 h
same,hemolysis of human erythrocytes,human erythrocytes; 32 μg/ml,< 25%
same,toxicity to human erythrocytes,human erythrocytes; at or below 16 μg/mL,did not show significant toxicity
same,HC50: median hemolytic concentration,human erythrocytes; human erythrocytes,47 µg/mL
same,MIC,[2],~4 µg/mL

# Reference: patent US11690824B2, “Antibacterial compounds” (THE GENERAL HOSPITAL CORPORATION, priority 2018, dated 2023)
